Laboratory results from article PMC9098178, “SAR of Novel 3-Arylisoquinolinones: meta-Substitution on the Aryl Ring Dramatically Enhances Antiproliferative Activity through Binding to Microtubules” (Journal of Medicinal Chemistry, 2022).

Legend:
HUVECs = assay: SRB assay of endothelial cell proliferation; assay type: cell-based; settings: 24 h, up to 10 μM
Procedure: Compound 4 was further elucidated whether it blocked the formation of capillary-like tubes and disrupted the already existing tubes of HUVECs as a result of inducing endothelial cell death. Accordingly, the growth of HUVECs treated with 4 was investigated using the SRB assay. HUVECs were plated on 96-well plates without prior coating with Matrigel and then exposed to different concentrations of 4 for 24 h.
All cell lines used in the study were human-derived and purchased from ATCC (Manassas, USA). Breast adenocarcinoma MCF-7 and MDA-MB-231 cell lines were cultured in DMEM. Hepatocellular carcinoma HepG2 and SNU423 cell lines were grown in MEME combined with 1% (v/v) nonessential amino acids and RPMI supplemented with 2 mM glutamine, respectively. Lung adenocarcinoma A549 and colorectal carcinoma HCT116 cells were grown in RPMI (+2 mM glutamine). […]
Screening of the antiproliferative activity of 3-arylisoquinolinones was performed using the SRB assay as previously described.[56] […] Finally, the cellular protein-bound SRB was thoroughly dissolved in 10 mM Tris base, and the OD values were read at 510 nm using a plate reader (μQuant Microplate Spectrophotometer, Biotek, U.K.) coupled with Gen5 software (BioTek, U.K.). […] Cell growth was calculated using the following formula: cell growth (%) = (ODtest/ODcontrol) × 100.

purified bovine tubulin = assay: Cell-free tubulin polymerization assay; assay type: biochemical
From the text: Experimentally, the direct interaction of 4 with tubulin was investigated in a cell-free system using a tubulin polymerization assay. […] In control samples, α- and β-tubulin subunits were able to heterodimerize and assemble into microtubules in a time-dependent manner as indicated by increasing absorbance values over time. […] This indicates the incidence of fast polymerization associated with the formation of a denser microtubule mass. […] It is worth mentioning that microtubule dynamics can be potently altered by microtubule-stabilizing or -destabilizing compounds at doses 10- to 100-fold lower than those required for increasing or decreasing the microtubule polymer mass.[31]
The cell-free tubulin polymerization experiment was performed using the Tubulin Polymerization Assay Kit according to the manufacturer’s instructions (Millipore, Cat# 17-10194). The light absorbed by microtubules, which were formed upon tubulin polymerization, is directly proportional to the polymer mass. […] Immediately, the plate was placed in a 37 °C-prewarmed plate reader (BMG LABTECH FLUOstar Omega, Germany) and the absorbance was measured at 1 min intervals for 60 min at a wavelength of 350 nm. The delta absorbance (ΔA) was calculated by subtracting the absorbance values of zero time from those of the subsequent time points and then plotted versus time.

HepG2 = assay: SRB antiproliferative assay, HepG2; assay type: cell-based, human; settings: Homo sapiens, HepG2, 96 h treatment, mean ± SEM, read-out: IC50 HepG2
Procedure: In light of this substantial change in activity between the meta and para compounds, a more comprehensive analysis of the antiproliferative activity was performed for the meta-/para-3-arylisoquinolinone pairs 2 and 3, 4, and 5, as well as 6. A panel of breast (MDA-MB-231), liver (HepG2, SNU423), lung (A549), and colon (HCT116) cancer cell lines were treated with the five 3-arylisoquinolinone analogs for 96 h followed by the SRB assay. The dose–response curves (including those for MCF-7) are presented in Figure S22, and their relevant IC50 values are listed in Table 1. […] The differential activity between meta- and para-3-arylisoquinolinones was reproduced in the National Cancer Institute (NCI) one-dose screen using a panel of 59 cancer cell lines (Figure S23).
All cell lines used in the study were human-derived and purchased from ATCC (Manassas, USA). Breast adenocarcinoma MCF-7 and MDA-MB-231 cell lines were cultured in DMEM. Hepatocellular carcinoma HepG2 and SNU423 cell lines were grown in MEME combined with 1% (v/v) nonessential amino acids and RPMI supplemented with 2 mM glutamine, respectively. Lung adenocarcinoma A549 and colorectal carcinoma HCT116 cells were grown in RPMI (+2 mM glutamine). All previous media were further supplemented with 10% heat-inactivated fetal bovine serum. The immortalized, normal liver THLE-3 cells were grown in BEGM (Lonza, Cat# CC-3170) onto precoated vessels according to ATCC’s instructions. Human umbilical vein endothelial cells (HUVECs) were cultured in EGM-2 (Lonza, Cat# CC-3162). All of the cells were maintained at 37 °C and 5% CO2 in a humidified incubator.
Screening of the antiproliferative activity of 3-arylisoquinolinones was performed using the SRB assay as previously described.[56] Exponentially growing HepG2, SNU423, MDA-MB-231, MCF-7, A549, HCT116, THLE-3, and HUVECs were seeded in 96-well plates at densities of 3000, 2000, 1500, 2500, 1000, 1000, 4000, and 4000 cells/well, respectively. These densities were experimentally selected so that the DMSO-treated cells (control) were approximately 80–90% confluent at the assay’s endpoint, and their optical density (OD) values fell within the assay’s linear range. After overnight incubation, the cells were treated with a range of concentrations of the respective compounds for 96 h, 24 h followed by 72 h compound-free incubation or 24 h (for HUVECs only). After treatment, cell monolayers were fixed with 10% (w/v) trichloroacetic acid for 1 h at 4 °C, washed, and dried. Then, the cells were exposed to 0.4% (w/v) SRB dye (prepared in 1% (v/v) acetic acid; Botium, Cat# 80100) for 15 min followed by several 1% acetic acid washing and then drying. Finally, the cellular protein-bound SRB was thoroughly dissolved in 10 mM Tris base, and the OD values were read at 510 nm using a plate reader (μQuant Microplate Spectrophotometer, Biotek, U.K.) coupled with Gen5 software (BioTek, U.K.). Compound-induced changes in cell growth were inferred from changes in OD values. Cell growth was calculated using the following formula: cell growth (%) = (ODtest/ODcontrol) × 100.

SMILES	effect on proliferation of HUVECs (HUVECs)	suppression of tubulin polymerization at highest concentration (purified bovine tubulin; 20 μM, nocodazole 10 μM)	effect on tubulin polymerization (purified bovine tubulin; 5, 10, 20 μM, 37 °C, absorbance 350 nm)	IC50 (HepG2) [µM]
O=c1[nH]c(-c2cccc(F)c2)cc2cc(F)ccc12 [compound 4, 6-Fluoro-3-(3-fluorophenyl)isoquinolin-1(2H)-one]	not able to significantly diminish the proliferation of HUVECs	as effective in suppressing tubulin polymerization as the positive control (nocodazole)	hindered tubulin polymerization in a concentration-dependent manner	
O=c1[nH]c(-c2ccc(F)cc2)cc2cc(F)ccc12 [compound 5, 6-Fluoro-3-(4-fluorophenyl)isoquinolin-1(2H)-one]				> 50
